Measurements reported in patent US20250057963A1, “DISCOVERY OF PIPERLONGUMINE AS A NOVEL E3 LIGASE LIGAND” (University of Florida Research Foundation, Incorporated, priority 2021, published 2025).

Biological target: T1, CDK9: 955: KEAP1 ternary complex (Homo sapiens, UniProt P50750+Q14145)
T1 construct: expressed in transfected cells; host or cells: 293T
Assay: NanoBRET ternary complex formation assay in live 293T cells
Type: cell-based
Conditions: HiBit-CDK9 and Halo-KEAP1 in 293T cells, 6 h
Source text: CMV HiBit (Cat. No. CS1956B03) was purchased from Promega. Plasmid HaloTag-KEAP1 (a gift from Yimon Aye, plasmid #58240) was purchased from Addgene. HiBit-CDK9 were constructed through the Gibson assembly method. The primer pair (5′-[…]atggcaaagcagtacgactcggtggag-3′ and 5′-[…]gaagacgcgctcaaactccgtctggt-3′) and the template HA-CDK9 (a gift from Andrew Rice, plasmid #28102) was used to clone the CDK9 fragment. The primer pair (5′-accagacggagtttgagcgcgtcttc[…]-3′ and 5′-ctccaccgagtcgtactgcttcgccat[…]-3′) and pBit3.1—N(Cat. No. N2361, Promega) were used to clone the vector-containing fragment. The PCR fragments were assembled using NEBuilder® HiFi DNAAssembly Master Mix. DNA sequences in all these plasmids were authenticated by automatic sequencing. […] After treatment, NanoBRET Nano-Glo Substrate (Cat. No. N1662, Promega) was added into the medium, and the contents were mixed by shaking the plate for 30 s before measuring donor and acceptor signals on Biotek plate reader. Dual-filtered luminescence was collected with a 450/50 nm bandpass filter (donor, NanoBiT-CDK9 protein) and a 610-nm longpass filter (acceptor, HaloTag NanoBRET ligand) using an integration time of 0.5 s. mBRET ratios were calculated following the NanoBRET™ Nano-Glo® Detection System (Cat. No. N1662, Promega).

T1 sequence (P50750 whole entry): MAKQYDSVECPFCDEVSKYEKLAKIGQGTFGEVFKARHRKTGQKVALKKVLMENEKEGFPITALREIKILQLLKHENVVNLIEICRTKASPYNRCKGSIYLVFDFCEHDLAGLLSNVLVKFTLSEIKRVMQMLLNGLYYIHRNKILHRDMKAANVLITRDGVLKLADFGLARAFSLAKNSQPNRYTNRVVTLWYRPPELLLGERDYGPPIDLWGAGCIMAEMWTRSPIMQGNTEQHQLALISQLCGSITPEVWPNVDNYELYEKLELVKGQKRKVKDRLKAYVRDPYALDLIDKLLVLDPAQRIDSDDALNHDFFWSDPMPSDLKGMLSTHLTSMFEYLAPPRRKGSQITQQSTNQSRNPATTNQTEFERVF
T1 sequence (Q14145 whole entry): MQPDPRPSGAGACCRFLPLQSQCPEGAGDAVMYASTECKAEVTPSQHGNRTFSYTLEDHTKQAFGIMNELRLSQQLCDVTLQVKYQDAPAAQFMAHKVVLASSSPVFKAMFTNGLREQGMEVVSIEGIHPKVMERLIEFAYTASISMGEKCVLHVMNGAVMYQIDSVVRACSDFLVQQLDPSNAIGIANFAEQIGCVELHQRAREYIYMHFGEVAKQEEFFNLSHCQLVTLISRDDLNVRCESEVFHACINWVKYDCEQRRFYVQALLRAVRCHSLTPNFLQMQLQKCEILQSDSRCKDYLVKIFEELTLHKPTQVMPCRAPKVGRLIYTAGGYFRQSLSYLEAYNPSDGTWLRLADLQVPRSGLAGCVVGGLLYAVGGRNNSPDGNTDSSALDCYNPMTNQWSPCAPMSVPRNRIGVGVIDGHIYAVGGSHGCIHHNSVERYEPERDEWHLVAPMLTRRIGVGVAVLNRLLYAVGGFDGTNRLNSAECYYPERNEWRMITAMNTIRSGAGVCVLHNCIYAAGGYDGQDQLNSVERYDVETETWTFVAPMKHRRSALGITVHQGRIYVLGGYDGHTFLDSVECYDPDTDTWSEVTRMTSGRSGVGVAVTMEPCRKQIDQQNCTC

Compound: COc1cc(/C=C/C(=O)N2CCC=CC2=O)cc(OC)c1OCCN1CCN(C(=O)CN2CCC(C(=O)Nc3ncc(SCc4ncc(C(C)(C)C)o4)s3)CC2)CC1 [compound 955, (E)-N-(5-(((5-(tert-butyl)oxazol-2-yl)methyl)thio)thiazol-2-yl)-1-(2-(4-(2-(2,6-dimethoxy-4-(3-oxo-3-(6-oxo-3,6-dihydropyridin-1(2H)-yl)prop-1-en-1-yl)phenoxy)ethyl)piperazin-1-yl)-2-oxoethyl)piperidine-4-carboxamide]
- formation of the CDK9:KEAP1 ternary complex: formed a stable ternary complex with CDK9 and KEAP1 in a dose-dependent manner
